Experiment [1] has as its target T1, VEGFR2 (Homo sapiens, UniProt P35968).
T1 construct: coding for the cytoplasmic domain, beginning with lysine 791 and including the termination codon; made in house; host or cells: Sf9 insect cells, baculovirus (pFastBacHis)
As to the kind of experiment: Inhibition against receptor tyrosine kinase activity (HTRF), VEGFR2. It counts as biochemical. Particulars: His6-VEGFR2 cytoplasmic domain, biotin-poly(GT), HTRF; read-out: VEGFR2 kinase IC50. On the procedure: This assay is used to determine inhibition of a test substance on tyrosine kinase activity. […] Expression in an appropriate expression system can produce a polypeptide with tyrosine kinase activity. […] The recombinant construct was transfected into insect cells (Spondoptea frugiperda9 (Sf9)) to prepare a recombinant Baculovirus.
For expression of the VEGFR2 tyrosine kinase, Sf9 cells were infected with the VEGFR2 recombinant virus and collected after 48 hours. The collected cells were rinsed with ice-cooled phosphate buffered saline (PBS) and then resuspended using 20 ml of ice-cooled Lysis Buffer (50 mM Tris-HCl (pH 8.5), 5 mM 2-mercaptoethanol, 100 mM KCl, 1 mM phenylmethylsulfonyl fluoride, 1% (v/v) NP-40) per 1.5×10^8 cells. The suspension was centrifuged at 12,000 rpm for 30 minutes at 4° C. and the supernatant was obtained. The supernatant was added to a Ni-NTA agarose column (3 ml, purchased from Qiagen) equilibrated with Buffer A {20 mM Tris-HCl (pH 8.5), 5 mM 2-mercaptoethanol, 500 mM KCl, 20 mM imidazole, 10% (v/v) glycerol}. The column was washed with 30 ml of Buffer A, and then with 6 ml of Buffer B {20 mM Tris-HCl (pH 8.5), 5 mM 2-mercaptoethanol, 1M KCl, 10% (v/v) glycerol}, and finally with 6 ml of Buffer A. After washing, it was eluted with 6 ml of Buffer C {20 mM Tris-HCl (pH 8.5), 5 mM 2-mercaptoethanol, 100 mM KCl, 100 mM imidazole, 10% (v/v) glycerol}. The eluate was placed on a dialysis membrane (purchased from Spectrum Laboratories) and dialyzed with a dialysis buffer {20 mM Tris-HCl (pH 7.5), 10% (v/v) glycerol, 1 mM dithiothreitol, 0.1 mM Na3VO4, 0.1 mM EGTA}. […] Using the same method for the cytoplasmic domains of FGFR1, PDGFRβ and HGFR yielded respective recombinant proteins fused with 6 histidine residues at the N-terminal (His6-FGFR1, His6-PDGFRβ or His6-HGFR).
The tyrosine kinase reaction was conducted as follows. […] Next, 10 μl of 4 μM ATP (diluted with distilled water) was added prior to incubation at 30° C. for 10 minutes, and then 10 μl of 500 mM EDTA (pH 8.0) was added.
The tyrosine phosphorylation rate for the biotin-poly(GT) was expressed as the delta F % value as described in the HTRF Standard Experiment Methods text by CIS Diagnostics Co. The delta F % value in the presence of the test substance was determined as a ratio (%) with the delta F % value with addition of His6-VEGFR2 in the absence of the test substance defined as 100% and the delta F % value in the absence of both the test substance and His6-VEGFR2 defined as 0%.
(In general: In TR-FRET formats the signal depends on donor and acceptor labels being close together.)

Experiment [2] deals with Human Umbilical Vein Endothelial Cells (HUVECs). Put plainly: Inhibition against sandwich tube formation by vascular endothelial cells, FGF2-stimulated. Particulars: HUVEC, 20 ng/ml FGF2 and 10 ng/ml EGF, 4th day after addition. Format: cell-based. How it is done:
(§1) Human Umbilical Vein Endothelial Cells (HUVECs) were isolated according to a reported method (Shinseikagaku Jikken Koza [New Biochemistry Experiment Lectures], “Saibo Baiyo Gijutsu” [Cell Culturing Techniques], p. 197-202), • and were cultured in a 5% CO2 incubator (37° C.) using EGM-2 medium (purchased from Clonetics Corp.) until the cells reached confluency.
(§2) An ice-cooled mixture of collagen: 5×RPMI 1640: reconstitution buffer (all purchased from Nitta Gelatin, Inc.) at 7:2:1 was dispensed at 0.4 ml into each well of a 24-well plate. After the solution was gelled by being stationed for 40 minutes in a 5% CO2 incubator (37° C.), HUVEC cell suspension was added at 0.4 ml to each well (using 1 to 1.2×10^5 cells, though the numbers of cells differ slightly according to the HUVEC lot), the HUVEC cell suspension being in human endothelial serum free medium (SFM, purchased from GIBCO BRL) containing added angiogenesis factors [20 ng/ml FGF2 (purchased from GIBCO BRL) and 10 ng/ml EGF (purchased from GIBCO BRL), or 25 ng/ml VEGF (purchased from Wako Pure Chemical Industries Co., Ltd.) and 10 ng/ml EGF, or 30 ng/ml HGF (purchased from R&D Co.) and 10 ng/ml EGF], and cultured overnight in a 5% CO2 incubator (37° C.). On the following day, the medium on the upper layer was aspirated off, and then 0.4 ml of an ice-cooled mixture of collagen: 5×RPMI 1640: reconstitution buffer (all purchased from Nitta Gelatin, Inc.) at 7:2:1 was superposed into each well prior to stationing for 4 hours in a 5% CO2 incubator (37° C.) for gelling. After adding 1.5 ml of an SFM solution containing each of the aforementioned angiogenesis factors and a diluted test substance onto the upper layer, culturing was performed in a 5% CO2 incubator (37° C.). Upon aspirating off the culture supernatant in each well on the 4th day after addition of the test substance, 0.4 ml of a 3.3 mg/ml MTT solution dissolved in PBS (purchased from Sigma Corp.) was added to each well and culturing was performed for approximately 2 hours in a 5% CO2 incubator (37° C.). The tubes formed in the collagen gel of each well were stained by MTT, the tube images were loaded into a computer (Macintosh), and the total length of the tubes was determined by image analysis software “MacScope” (purchased from Mitani Corp.). The ratio of the total length of the tubes formed in the well containing the test substance with respect to the total length of the tubes formed in the well containing no test substance was expressed as a percentage, and the concentration of each test substance required for 50% inhibition of tube formation (IC50) was determined from the ratio value.

Experiment [3] shares this test system. As to the kind of experiment: Inhibition against sandwich tube formation by vascular endothelial cells, VEGF-stimulated. Format: cell-based. The conditions noted are these: HUVEC, 25 ng/ml VEGF and 10 ng/ml EGF, 4th day after addition. On the procedure: as §1, §2

T1 sequence (P35968 786-1356 limits assumed): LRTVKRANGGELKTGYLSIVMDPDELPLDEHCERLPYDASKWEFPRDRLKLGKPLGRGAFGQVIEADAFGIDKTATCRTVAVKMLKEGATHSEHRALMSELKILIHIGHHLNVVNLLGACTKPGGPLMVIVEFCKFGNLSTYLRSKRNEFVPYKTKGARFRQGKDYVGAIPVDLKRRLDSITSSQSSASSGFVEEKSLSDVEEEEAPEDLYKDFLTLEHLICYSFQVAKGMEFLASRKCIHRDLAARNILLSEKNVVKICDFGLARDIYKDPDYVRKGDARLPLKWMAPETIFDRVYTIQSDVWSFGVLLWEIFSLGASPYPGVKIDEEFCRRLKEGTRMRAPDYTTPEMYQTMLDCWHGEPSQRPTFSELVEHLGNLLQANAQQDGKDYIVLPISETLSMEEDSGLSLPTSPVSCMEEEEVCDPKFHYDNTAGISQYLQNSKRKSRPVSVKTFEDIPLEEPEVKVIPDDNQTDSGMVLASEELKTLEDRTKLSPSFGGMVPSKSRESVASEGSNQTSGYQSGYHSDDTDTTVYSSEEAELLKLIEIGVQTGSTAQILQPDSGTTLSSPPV

As a reminder, the IC50 is the concentration needed to halve the response being measured. In the case of `CNC(=O)n1ccc2cc(Oc3ccnc(NC(=O)N4CCC(O)CC4)c3)ccc21` [Example 39, N1-Methyl-5-(2-((4-hydroxypiperidino)carbonyl)amino-4-pyridyl)oxy-1H-1-indolecarboxamide], the IC50 is 4.5 nM in experiment [1], 470 nM in experiment [2] and 5.1 nM in experiment [3].

Regarding `CNC(=O)n1ccc2cc(Oc3ccnc(NC(=O)N4CCC(C)(O)CC4)c3)ccc21` [Example 41, 5-(2-(((4-Hydroxy-4-methylpiperidin-1-yl)carbonyl)amino)pyridin-4-yloxy)-1H-1-indole-1-carboxylic acid methylamide], the IC50 was 6.1 nM in experiment [1], 250 nM in experiment [2] and 2.1 nM in experiment [3].

`CNC(=O)n1ccc2cc(Oc3ccnc(NC(=O)N4CCC(N5CCCC5)CC4)c3)ccc21` [Example 46, N1-Methyl-5-(2-(((4-(pyrrolidin-1-yl)piperidin-1-yl)carbonyl)amino)pyridin-4-yloxy)-1H-1-indolecarboxamide]: the values for the IC50 in experiment [1], in experiment [2] and in experiment [3] were 32 nM, 470 nM and 7 nM, respectively.

For the molecule `CNC(=O)n1ccc2cc(Oc3ccnc(NC(=O)N4CCC(N5CCCCC5)CC4)c3)ccc21` [Example 47, N1-Methyl-5-(2-(((4-(piperidin-1-yl)piperidin-1-yl)carbonyl)amino)pyridin-4-yloxy)-1H-1-indolecarboxamide], the IC50 stood at 40 nM in experiment [1], 120 nM in experiment [2] and 5.8 nM in experiment [3].

On to `CNC(=O)n1ccc2cc(Oc3ccnc(NC(=O)N4CCOCC4)c3)ccc21` [Example 53, N4-(4-(1-(Methylamino)carbonyl-1H-5-indolyl)oxy-2-pyridyl)-4-morpholinecarboxamide], for which the IC50 turned out to be 3.8 nM in experiment [1], 440 nM in experiment [2] and 6.7 nM in experiment [3].

The record behind these values is patent publication US20060004029A1, “Nitrogen-containing aromatic derivatives” (priority 2003, published 2006).
